Measurements published in the NIST ThermoML archive (doi:10.1016/j.jct.2005.09.003).

Test: xn = mol fraction of the nth substance listed
Conditions: Liquid, x1 = 1

CCCCCCCC [octane] + CCCCCCCl
mass density [kg/m3]
Conditions	298.15 K	308.15 K	318.15 K	328.15 K
100 kPa	698.64	690.43	682.47	674.53
2130 kPa	700.14	692.18	684.48	676.49
4150 kPa	701.87	694	686.45	678.56
6180 kPa	703.56	695.79	688.29	680.59
8210 kPa	705.17	697.53	690.17	682.57
10230 kPa	706.78	699.24	691.97	684.51
11250 kPa	707.58	700.07	692.85	685.44
12260 kPa	708.37	700.88	693.77	686.38
14290 kPa	709.9	702.55	695.49	688.23
16310 kPa	711.41	704.13	697.2	690.03
18340 kPa	712.9	705.71	698.86	691.76
20370 kPa	714.36	707.23	700.47	693.5
22390 kPa	715.78	708.76	702.07	695.17
24420 kPa	717.18	710.22	703.61	696.82
26450 kPa	718.56	711.66	705.13	698.41
28470 kPa	719.9	713.09	706.66	699.98
29490 kPa	720.57	713.77	707.38	700.75
30500 kPa	721.22	714.47	708.13	701.53
32530 kPa	722.53	715.84	709.54	703.01
34550 kPa	723.82	717.18	710.96	704.5
36580 kPa	725.06	718.5	712.33	705.96
38600 kPa	726.32	719.82	713.68	707.36
39620 kPa	726.94	720.45	714.38	708.06
